Structures can show the parent of a compound that is named as a salt.
Assays:
PRMT5/MEP50 complex = PRMT5/MEP50 complex (Homo sapiens (Human), UniProt O14744); assay: PRMT5 biochemical assay (3H-SAM filter plate, histone H2A substrate); settings: PRMT5/MEP50 5 nM, histone H2A 5 μM, SAM 1 μM; read-out: PRMT5 IC50
Procedure: Biochemical Assay Protocol
Compounds were solubilized and 3-fold diluted in 100% DMSO. […] Standard reactions were performed in a total volume of 50 μl in assay buffer, with histone H2A (5 μM final) as substrate. To this was added the PRMT5/MEP50 complex diluted to provide a final assay concentration of 5 nM and the compounds were allowed to preincubate for 15 to 20 minutes at room temperature. The reaction was initiated by adding S-[3H-methyl]-adenosyl-L-methionine (PerkinElmer) to final concentration of 1 μM. Following a 60 minutes incubation at 30° C., the reaction was stopped by adding 100 μL of 20% TCA. Each reaction was spotted onto filter plate (MultiScreen FB Filter Plate, Millipore), and washed 5 times with PBS buffer, Scintillation fluid was added to the filter plate and read in a scintillation counter. IC50 values were determined by fitting the data to the standard 4 parameters with Hill Slope using GraphPad Prism software.

sDMA [1] = assay: Western blot for symmetric di-methyl arginine (sDMA) IC50 in Granta cells; assay type: cell-based; settings: Homo sapiens, 72 h; Granta-519 cell line, 3 days
Granta-519 = assay: Tumor growth inhibition in Granta-519 mouse xenograft model; assay type: in vivo
Procedure: In Vivo Pharmacodynamic Effect and Tumor Growth Inhibition of Example 47 in Granta-519 Mouse Xenograft Model.
(§1) Granta-519 cells was maintained in DMEM medium supplemented with 10% fetal bovine serum and 2 mM L-Glutamine at 37° C. in an atmosphere of 5% CO2 in air. Cells in exponential growth phase were harvested and 1×10^7 cells in 0.1 mL of PBS with Matrigel (1:1) were injected subcutaneously at the right lower flank region of each mouse for tumor development. The treatments were started when the mean tumor size reaches approximately 300-400 mm^3. […] Example 47 or vehicle (0.5% Na CMC+0.5% Tween80, suspension) were administered orally (QD for Example 47, QD for vehicle) at a dose of 30 mg/kg and 50 mg/kg for 19 and 16 days, respectively. Body weights and tumor size were measured every 3 to 4 days after randomization. Animals were euthanized 12 hours after last dosing, and blood and tumor samples were collected for analysis.

Granta-519 cells = assay: Cell proliferation assay on Granta-519 cells (CCK-8, day 10); assay type: cell-based; settings: Homo sapiens, 240 h, Granta-519 cell line, read-out: Prolif. IC50
Procedure: Cell Proliferation Assay to Determine IC50 on Granta-519 Cells
Granta-519 cells were maintained in PRMI 1640 (Corning Cellgro, Catalog #: 10-040-CV) medium supplemented with 10% v/v FBS (GE Healthcare, Catalog #: SH30910.03). Compounds were dissolved in DMSO to make 10 mM stocks and stored at −20° C. Nine-point, 3-fold serial dilutions were made with DMSO with top concentration at 1 mM (working stocks).
On day of experiment, compound working stocks were further diluted at 1:50 with fresh medium in 96 well plate, and 10 μL of diluted drugs were added to a new 96 well plate for proliferation assay. Cells growing at exponential phase were spun down at 1500 rpm for 4 min and resuspend in fresh medium to reach a density of 0.5×10^6 cells/ml. 200 ul of cells were added to 96 well plate containing diluted drugs and incubated for 3 days. DMSO was used a vehicle control.
One day 3, 10 μL of Cell Counting Kit-8 (CCK-8, Jojindo, CK04-13) solution was added to a new 96 well plate. Cells incubated with drugs for 3 days were resuspended by pipetting up and down, and 100 μL of cells were transferred to 96 well plate containing CCK-8 reagent to measure viable cells. Plates were incubated in CO2 incubator for 2 hours and OD450 values were measured with a microplate reader (iMark microplate reader, Bio-Rad).
For re-plating, compound working stocks were diluted at 1:50 with fresh medium and 10 μL of diluted drugs were added to a new 96 well plate. Cells from Day 3 plate (50 ul) were added to 96 well plate containing fresh drug and additional 150 μL of fresh medium was added to reach 200 μL volume. Plate was returned to CO2 incubator and incubated for 3 more days. Viable cells measurement and re-plating were repeated on day 6, and the final viable cells measurement was taken on day 10.
Percentage of viable cells, relative to DMSO vehicle control, were calculated and plotted in Graphpad Prism ([Inhibitor] vs. normalized response−Variable slope) to determine proliferation IC50 values on day 10.

sDMA [2] = assay: sDMA levels in tumor samples of Granta-519 mouse xenograft (WB); assay type: in vivo
Procedure: as §1
To measure sDMA levels in tumor samples, tumors from each mouse were weighted and homogenized in RIPA buffer supplemented with protease inhibitor (cOmplete™, EDTA-free Protease Inhibitor Cocktail, Roche). Lysate were centrifuged at 14,000 rpm for 30 min at 4° C. to remove debris. Total protein concentrations of lysate were determined by BCA assay (ThermoFisher Scientific, Catalog #: 23225). Equal amount of total proteins from each tumor were separated on SDS-PAGE gel, and sDMA levels were determined by WB as described previously.

[3] = Body weight in Granta-519 mouse xenograft study; assay type: in vivo
Procedure: as §1

[4] = Rat non-crossover PK study; assay type: in vivo
Procedure: In Vivo Pharmacokinetic Properties of Example 47.
In a rat (SD, male, non-fasted) non-crossover PK study, Example 47 was dosed at 1 mg/kg (DMA: 20% HPBCD=5:95, solution) via i.v. administration (N=3) and 1 mg/kg (0.5% Na CMC+0.5% Tween80, solution) via oral gauge (p.o.) (N=3).

physchem = settings: FaSSIF buffer, 25 °C, thermodynamic from solid

Sequence of PRMT5/MEP50 complex (O14744 whole entry): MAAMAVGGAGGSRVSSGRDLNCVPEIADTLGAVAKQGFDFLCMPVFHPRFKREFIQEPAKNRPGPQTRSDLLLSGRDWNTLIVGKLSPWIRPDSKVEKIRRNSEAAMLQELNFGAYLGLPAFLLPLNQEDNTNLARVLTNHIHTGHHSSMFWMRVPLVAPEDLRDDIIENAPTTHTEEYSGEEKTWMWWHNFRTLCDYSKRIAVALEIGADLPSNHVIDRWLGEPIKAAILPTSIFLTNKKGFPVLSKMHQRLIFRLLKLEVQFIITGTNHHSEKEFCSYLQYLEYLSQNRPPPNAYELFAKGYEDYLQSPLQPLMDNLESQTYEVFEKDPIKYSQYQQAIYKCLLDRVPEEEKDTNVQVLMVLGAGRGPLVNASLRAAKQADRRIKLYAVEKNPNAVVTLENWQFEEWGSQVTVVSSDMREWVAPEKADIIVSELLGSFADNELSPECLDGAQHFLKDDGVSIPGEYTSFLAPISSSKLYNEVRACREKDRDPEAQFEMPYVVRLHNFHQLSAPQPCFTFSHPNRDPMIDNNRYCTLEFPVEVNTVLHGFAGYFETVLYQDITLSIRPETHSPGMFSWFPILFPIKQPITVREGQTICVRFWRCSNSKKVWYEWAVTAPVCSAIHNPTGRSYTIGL
Sequence of PRMT5/MEP50 complex (Q9BQA1 whole entry partner): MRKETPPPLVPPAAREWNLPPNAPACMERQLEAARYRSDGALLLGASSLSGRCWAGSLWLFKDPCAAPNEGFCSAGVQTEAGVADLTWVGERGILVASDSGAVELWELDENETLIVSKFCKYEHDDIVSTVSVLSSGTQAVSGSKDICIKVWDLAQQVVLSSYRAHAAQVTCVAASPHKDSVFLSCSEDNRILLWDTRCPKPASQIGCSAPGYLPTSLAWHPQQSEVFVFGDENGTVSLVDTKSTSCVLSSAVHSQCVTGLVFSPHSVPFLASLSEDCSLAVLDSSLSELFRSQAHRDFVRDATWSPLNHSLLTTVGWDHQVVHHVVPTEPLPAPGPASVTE

Structure (SMILES): C[C@@]1(O)[C@@H]([C@H](O)c2ccc(Cl)c(Cl)c2)O[C@@H](n2ccc3c(N)ncnc32)[C@@H]1O [Example 47, (2R,3S,4R,5R)-5-(4-amino-7H-pyrrolo[2,3-d]pyrimidin-7-yl)-2-((R)-(3,4-dichlorophenyl)(hydroxy)methyl)-3-methyltetrahydrofuran-3,4-diol]
- IC50 (PRMT5/MEP50 complex): 1.5 nM
- IC50 (sDMA [1]): 31 nM
- tumor growth inhibition (Granta-519; 30 mg/kg orally QD, 19 days, average (N=5)): 46%
- tumor growth inhibition (Granta-519; 50 mg/kg orally QD, 16 days, average): 79%
- IC50 (Granta-519 cells): 75 nM
- sDMA in tumor (sDMA [2]; 50 mg/kg): no detectable sDMA
- inhibition at 30 mg/kg (sDMA [2]; Mus musculus, Granta-519, 30 mg/kg): > 90%
- body weight loss ([3]; 30 mg/kg orally QD, 19 days): 1%
- body weight loss ([3]; 50 mg/kg orally QD, 16 days): 8%
- half-life ([4]; blood, iv, rat (SD, male, non-fasted), 1 mg/kg i.v., average): 4.1 h
- Vd ([4]; male, SD, blood, iv, rat, 1 mg/kg i.v., average, read-out: Vss): 3.1 L/kg
- bioavailability ([4]; male, SD, blood, po, rat, 1 mg/kg p.o.): > 100%
- clearance ([4]; male, SD, whole blood, iv, rat, 1 mg/kg i.v., average): 8.8 mL/min/kg
- dose normalized AUC ([4]; rat, 1 mg/kg p.o., average): 3246 ng·kg·h/mL/mg

Structure (SMILES): Cc1ncnc2c1ccn2[C@@H]1O[C@H]([C@H](O)c2ccc(Cl)c(Cl)c2)[C@@](C)(O)[C@H]1O [Example 58, (2R,3S,4R,5R)-2-((R)-(3,4-dichlorophenyl)(hydroxy)methyl)-3-methyl-5-(4-methyl-7H-pyrrolo[2,3-d]pyrimidin-7-yl)tetrahydrofuran-3,4-diol]
- IC50 (PRMT5/MEP50 complex): 11 nM
- IC50 (sDMA [1]): 3160 nM
- IC50 (Granta-519 cells): 10000 nM

Structure (SMILES): C[C@@]1(O)[C@@H]([C@H](O)c2ccc(Cl)cc2)O[C@@H](n2ccc3c(N)ncnc32)[C@@H]1O [Example 26, (2R,3S,4R,5R)-5-(4-amino-7H-pyrrolo[2,3-d]pyrimidin-7-yl)-2-((R)-(4-chlorophenyl)(hydroxy)methyl)-3-methyltetrahydrofuran-3,4-diol]
- IC50 (PRMT5/MEP50 complex): 4.8 nM
- IC50 (sDMA [1]): 51.4 nM
- IC50 (Granta-519 cells): 660 nM

Structure (SMILES): C[C@@]1(O)[C@@H]([C@H](O)c2ccc(F)c(C(F)(F)F)c2)O[C@@H](n2ccc3c(N)ncnc32)[C@@H]1O [Example 63, (2R,3S,4R,5R)-5-(4-amino-7H-pyrrolo[2,3-d]pyrimidin-7-yl)-2-((R)-(4-fluoro-3-(trifluoro-methyl)phenyl)(hydroxy)methyl)-3-methyltetrahydrofuran-3,4-diol]
- IC50 (PRMT5/MEP50 complex): 3 nM
- IC50 (sDMA [1]): 71 nM
- IC50 (Granta-519 cells): 231 nM

Structure (SMILES): C[C@@]1(O)[C@@H](COc2ccc3ccc(N)nc3c2)O[C@@H](n2ccc3c(N)ncnc32)[C@@H]1O [Example 1, (2R,3S,4R,5R)-5-(4-amino-7H-pyrrolo[2,3-d]pyrimidin-7-yl)-2-(((2-aminoquinolin-7-yl)oxy)methyl)-3-methyltetrahydrofuran-3,4-diol]
- IC50 (PRMT5/MEP50 complex): 0.75 nM
- IC50 (sDMA [1]): 15 nM
- IC50 (Granta-519 cells): 40 nM

Structure (SMILES): C[C@@]1(O)[C@@H]([C@H](O)c2ccc(Cl)c(Cl)c2)O[C@@H](n2ccc3c(N)ncnc32)[C@@H]1O [Example 48, (2R,3S,4R,5R)-5-(4-amino-7H-pyrrolo[2,3-d]pyrimidin-7-yl)-2-((R)-(3,4-dichlorophenyl)(hydroxy)methyl)-3-methyltetrahydrofuran-3,4-diol Sulfate Salt]
- solubility at 4 h (physchem): 206 µg/mL

— patent US10570140B2, “Selective inhibitors of protein arginine methyltransferase 5 (PRMT5)” (Prelude Therapeutics, Incorporated, priority 2017, dated 2020)
